In PMC6027297, “A Short Peptide Inhibitor as an Activity-Based Probe for Matriptase-2” (Pharmaceuticals, 2018):
Residues, ends and D or L forms follow the SMILES beside them. *: point of attachment. Biotin = O=C1N[C@H]2[C@H](CS[C@H]2CCCCC(=O)*)N1; CH2Cl = ClC*

Columns and labels:
matriptase-2 (MT-2) [1] = target: T1, matriptase-2 (MT-2) (Homo sapiens, UniProt Q8IU80); assay: MT-2 activity on the surface of transfected HEK cells; assay type: cell-based
T1 construct: expressed in transfected cells; host or cells: stably transfected HEK cells
T1 sequence (Q8IU80 1-802 isoform Q8IU80-1): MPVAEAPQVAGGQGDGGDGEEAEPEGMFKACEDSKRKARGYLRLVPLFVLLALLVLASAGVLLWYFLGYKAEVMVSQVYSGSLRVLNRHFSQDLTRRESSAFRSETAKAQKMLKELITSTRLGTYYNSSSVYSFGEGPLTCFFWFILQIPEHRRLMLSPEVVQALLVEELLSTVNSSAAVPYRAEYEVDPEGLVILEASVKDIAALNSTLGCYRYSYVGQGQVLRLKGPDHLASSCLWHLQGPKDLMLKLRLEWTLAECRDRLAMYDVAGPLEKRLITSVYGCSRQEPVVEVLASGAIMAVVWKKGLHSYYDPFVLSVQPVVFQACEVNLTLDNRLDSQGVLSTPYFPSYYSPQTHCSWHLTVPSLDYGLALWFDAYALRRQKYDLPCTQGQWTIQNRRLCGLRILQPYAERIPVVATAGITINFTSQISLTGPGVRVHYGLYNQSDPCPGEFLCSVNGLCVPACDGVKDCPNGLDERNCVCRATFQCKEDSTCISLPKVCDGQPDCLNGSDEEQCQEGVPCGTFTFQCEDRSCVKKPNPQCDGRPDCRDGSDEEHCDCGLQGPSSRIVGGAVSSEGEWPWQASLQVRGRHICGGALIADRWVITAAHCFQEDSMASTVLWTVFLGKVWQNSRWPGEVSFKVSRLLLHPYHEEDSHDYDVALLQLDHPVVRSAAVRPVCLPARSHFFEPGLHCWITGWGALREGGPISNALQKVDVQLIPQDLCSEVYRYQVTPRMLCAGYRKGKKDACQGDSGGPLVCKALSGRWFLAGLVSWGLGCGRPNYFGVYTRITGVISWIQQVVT
Procedure: To further investigate the inhibitory potency of the probe in an in vitro approach, MT-2 activity was measured on the surface of stably transfected HEK cells expressing MT-2. Different probe concentrations were applied (Figure 3).
To measure MT-2 activity at the cell surface, HEK cells were seeded in 96 well cell culture plates and cultivated at 37 °C in DMEM medium until a confluence of approximately 70% was reached. After two washing steps with PBS and two further days of incubation in Opti-MEM medium at 37 °C, the culture medium was removed and the cells were washed two times with PBS. MT-2 assay buffer, biotin-RQRR-CMK and DMSO were then directly added to the cells before the reaction was started by adding substrate solution in a final concentration of 40 µM to each well. The conversion of the substrate by MT-2 was followed over a time of 50 min at 37 °C.

matriptase-2 (MT-2) [2] = target: T2, matriptase-2 (MT-2) (Homo sapiens, UniProt Q8IU80); assay: MT-2 activity in supernatant of transfected HEK cells (fluorogenic substrate Boc-Gln-Ala-Arg-AMC); assay type: biochemical; conditions: probe 25–100 nM, Boc-Gln-Ala-Arg-AMC 40 µM, NaCl 150 mM, TRIS 50 mM, pH 8.0, 10 µg supernatant, 37 °C, 50 min, ex 340 nm, em 460 nm, non-linear regression of progress curves
T2 construct: This fragment consists of the catalytic and the three LDLRA domains of MT-2; made in house; host or cells: stably transfected HEK cells; concentrated culture supernatant, not purified
T2 sequence (Q8IU80 577-811 limits assumed): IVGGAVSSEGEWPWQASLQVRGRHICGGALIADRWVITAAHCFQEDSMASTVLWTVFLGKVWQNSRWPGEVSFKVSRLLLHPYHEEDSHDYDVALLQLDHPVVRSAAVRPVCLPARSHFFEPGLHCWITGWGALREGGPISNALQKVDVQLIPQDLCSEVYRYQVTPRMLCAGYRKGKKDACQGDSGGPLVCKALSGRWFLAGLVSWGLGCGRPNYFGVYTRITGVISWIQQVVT
T2 sequence (Q8IU80 438-576 partner limits assumed): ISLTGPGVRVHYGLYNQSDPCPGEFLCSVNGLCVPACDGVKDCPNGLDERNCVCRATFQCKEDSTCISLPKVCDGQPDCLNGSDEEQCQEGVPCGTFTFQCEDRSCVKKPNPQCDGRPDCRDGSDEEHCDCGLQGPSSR
Procedure: We used stably transfected human embryonic kidney (HEK) cells as the source for MT-2 [14]. […] Initially, the inhibitory potency of biotin-RQRR-CMK against MT-2 was assessed. For this purpose, we determined MT-2 activity in the supernatant of transfected HEK cells using a tripeptidic fluorogenic substrate. Probe concentrations of 25 nM to 100 nM were applied. Values kobs were obtained from non-linear regression of the progress curves of the supernatant experiment using the equation [P] = v0 (1 − e^−kobs t)/kobs + d(1) where [P] is the product concentration, v0 is the initial rate and d is the offset. […]
(§1) Stably transfected human embryonic kidney (HEK) cells expressing MT-2 or an empty vector construct were cultivated in Dulbecco’s Modified Eagle’s Medium (DMEM) containing fetal bovine serum (FBS) as well as penicillin and streptadivin in a concentration of […] at 37 °C. […] The protein concentration of the obtained protein mixture was determined by absorption measurements using Roti-Nanoquant Bradford solution.
Kinetic measurements were performed on a Fluostar Optima plate reader (BMG Lab Tech, Offenburg, Germany) in 96 well plates. […]

MT-2 = conditions: active-site directed inhibitor of serine proteases; ref [1],[38]; cited from earlier work
Procedure: (§2) To confirm that biotin-RQRR-CMK binds to the active site of MT-2, we added aprotinin to the supernatants of HEK-MT-2 cells. Treatment with aprotinin or DMSO was carried out 2 h prior to probe treatment. […] MT-2 was present in the supernatant of transfected HEK cells incubated with the probe and/or aprotinin (Figure 6: panel a).

matriptase-2 (MT-2) [3] = assay: Western blot detection of biotin-RQRR-CMK-labeled MT-2 in HEK-cell supernatant (Strep-Tactin/AP); conditions: 30 µg HEK-MT-2 supernatant, 50 µM aprotinin for 2 h before probe (5 µM, 30 min)
Procedure: Similar to antibody staining addressing the myc tag, the biotin tag which was chemically introduced by biotin-RQRR-CMK was employed for the detection of MT-2 after western blotting. For this purpose, 30 µg of HEK-mock or HEK-MT-2 supernatants were incubated with or without biotin-RQRR-CMK prior to SDS-PAGE. After transfer to a nitrocellulose membrane, the blot was incubated with a conjugate of Strep-Tactin with alkaline phosphatase (AP). […] This band was only observed in the supernatant of HEK cells expressing active MT-2 that was treated with the probe.
as §2
as §1, with “solution. […]” for “solution.”

Row | Ki (matriptase-2 (MT-2) [1]; surface of stably transfected HEK cells, probe 100–600 nM, substrate 40 µM, MT-2 assay buffer, 37 °C, 50 min, linear regression of progress curves, equation (3)) [nM] | Ki (in words) (matriptase-2 (MT-2) [1]; surface of transfected HEK cells) | kinac/Ki (second-order rate constant of inactivation) (matriptase-2 (MT-2) [2]) | Compound | inhibition of MT-2 (MT-2) | protection of MT-2 from labeling by biotin-RQRR-CMK (matriptase-2 (MT-2) [3])
1 | 89 | two-digit nanomolar Ki value | 10,800 M^−1 s^−1 | N=C(N)NCCC[C@H](NC(=O)[C@H](CCCNC(=N)N)NC(=O)[C@H](CCC(N)=O)NC(=O)[C@H](CCCNC(=N)N)NC(=O)CCCC[C@@H]1SC[C@@H]2NC(=O)N[C@@H]21)C(=O)CCl [biotin-RQRR-CMK] (Biotin-RQRR-CH2Cl) |  | 
2 |  |  |  | aprotinin | has been shown to inhibit MT-2 | labeled MT-2 fragment which was missing in HEK-MT-2 supernatants after aprotinin treatment
